From the supplement of paper PMC13380429

Assays:
Conditions in all cases: 72 h
Vero E6 [1] = test: cell viability relative to DMSO; higher = less toxic
Caco-2 [2] = test: as above
U2OS [3] = test: as above
HepG2 [4] = test: as above
U2OS [5] = test: relative viability EC50 (midpoint between 100% and the lowest measured viability); higher = less toxic
HepG2 [6] = test: as above
Vero E6 [7] = test: drug sensitivity score (DSS) for viability; higher = more toxic; extreme values may be limits of the assay
Caco-2 [8] = test: as above
U2OS [9] = test: as above
HepG2 [10] = test: as above
Calu-3 [11] = test: cell viability relative to DMSO; higher = less toxic
Calu-3 [12] = test: drug sensitivity score (DSS) for viability; higher = more toxic; extreme values may be limits of the assay
Caco-2 [13] = test: relative viability EC50 (midpoint between 100% and the lowest measured viability); higher = less toxic
Calu-3 [14] = test: as above
Vero E6 [15] = test: as above

SMILES	cell viability (Vero E6 [1]; 1 nM)	cell viability (Vero E6 [1]; 10 nM)	cell viability (Vero E6 [1]; 100 nM)	cell viability (Vero E6 [1]; 1000 nM)	cell viability (Vero E6 [1]; 10000 nM)	cell viability (Caco-2 [2]; 1 nM)	cell viability (Caco-2 [2]; 10 nM)	cell viability (Caco-2 [2]; 100 nM)	cell viability (Caco-2 [2]; 1000 nM)	cell viability (Caco-2 [2]; 10000 nM)	cell viability (U2OS [3]; 1 nM)	cell viability (U2OS [3]; 10 nM)	cell viability (U2OS [3]; 100 nM)	cell viability (U2OS [3]; 1000 nM)	cell viability (U2OS [3]; 10000 nM)	cell viability (HepG2 [4]; 1 nM)	cell viability (HepG2 [4]; 10 nM)	cell viability (HepG2 [4]; 100 nM)	cell viability (HepG2 [4]; 1000 nM)	cell viability (HepG2 [4]; 10000 nM)	relative viability EC50 (U2OS [5])	relative viability EC50 (HepG2 [6])	drug sensitivity score (Vero E6 [7])	drug sensitivity score (Caco-2 [8])	drug sensitivity score (U2OS [9])	drug sensitivity score (HepG2 [10])	cell viability (Calu-3 [11]; 1 nM)	cell viability (Calu-3 [11]; 10 nM)	cell viability (Calu-3 [11]; 100 nM)	cell viability (Calu-3 [11]; 1000 nM)	cell viability (Calu-3 [11]; 10000 nM)	drug sensitivity score (Calu-3 [12])	relative viability EC50 (Caco-2 [13])	relative viability EC50 (Calu-3 [14])	relative viability EC50 (Vero E6 [15])
Cc1ccc(NC(=O)c2cccc(C(C)(C)C#N)c2)cc1Nc1ccc2ncn(C)c(=O)c2c1 [AZ-628]	101%	102%	102%	84.2%	52.4%	95.8%	102%	98.2%	81.9%	63.8%	98.7%	98.6%	93.2%	89.7%	43.3%	97.5%	102%	69.9%	22%	16.6%	1.81 µM	0.148 µM	4.8	3.7	4.8	18.1	–	–	–	–	–	–	–	–	–
Cc1c(C(=O)Nc2ccc(N3CCC(N4CCOCC4)CC3)c(C#N)c2)cnn1-c1ccc(Cl)cc1 [Y-320]	104%	104%	106%	104%	74.6%	104%	93.8%	103%	87.5%	74.9%	–	–	–	–	–	106%	109%	105%	77.4%	23%	–	1.42 µM	0.8	2.4	–	7.6	103%	103%	90.1%	89.6%	69.9%	2.2	–	–	–
C#Cc1cncc([C@@H]2CCCN2C)c1 [altinicline]	–	–	–	–	–	101%	92.9%	102%	98.7%	97.7%	102%	91.9%	102%	97.4%	98.9%	98.5%	96.8%	106%	105%	93.5%	> 10 µM	> 10 µM	–	0	0	0	98.3%	99%	93.9%	102%	110%	0	> 10 µM	> 10 µM	–
Cc1c(N2C(=O)[C@@H]3[C@H](O)CCN3C2=O)ccc(C#N)c1Cl	–	–	–	–	–	95.4%	100%	89.1%	93.1%	90.3%	94.8%	99.8%	98.6%	94.4%	97.1%	97.7%	95.4%	94%	93.8%	97.1%	> 10 µM	> 10 µM	–	0	0	0	106%	101%	97.4%	109%	105%	0	> 10 µM	> 10 µM	–
COc1cccc(OC)c1-c1cc(C(=O)N[C@@H](CC(C)C)C(=O)O)nn1-c1ccnc2cc(Cl)ccc12 [TC-NTR1-17]	–	–	–	–	–	103%	99.6%	100%	91.7%	99.9%	–	–	–	–	–	102%	106%	97%	106%	106%	–	> 10 µM	–	0	–	0	117%	102%	93%	104%	104%	0	> 10 µM	> 10 µM	–
Cc1cc(Nc2cc(C)c(C#N)c(N[C@@H](C)CCCC(C)(C)O)n2)n[nH]1 [TC-A-2317]	105%	104%	96.4%	75.7%	22%	103%	102%	94%	77.6%	25.3%	106%	98.2%	96.9%	68.8%	7.2%	110%	103%	93.2%	62.8%	54.3%	1.33 µM	–	7.8	7.2	9.4	7.5	98%	89.4%	84.7%	77.2%	40.8%	6.7	1.47 µM	0.799 µM	1.4 µM
O=C(N/N=C/c1ccc([N+](=O)[O-])o1)c1cc([N+](=O)[O-])cc([N+](=O)[O-])c1O [nifursol]	–	–	–	–	–	96.9%	102%	97.1%	94.4%	90.2%	96.9%	98.3%	104%	96.8%	101%	109%	100%	93%	93.7%	85.4%	> 10 µM	> 10 µM	–	0	0	0.3	89.1%	102%	103%	94.9%	101%	0	> 10 µM	> 10 µM	–
Cc1cc(O)cc2c1O[C@](C)(CCC[C@H](C)CCC[C@H](C)CCCC(C)C)CC2 [D-delta-tocopherol]	–	–	–	–	–	102%	109%	99.8%	103%	99.1%	97.7%	103%	96.9%	106%	98%	114%	110%	116%	103%	99.4%	> 10 µM	> 10 µM	–	0	0	0	89.4%	96.6%	84.8%	93.8%	79.4%	0	> 10 µM	> 10 µM	–
CCCNS(=O)(=O)Nc1ncnc(OCCOc2ncc(Br)cn2)c1-c1ccc(Br)cc1 [macitentan]	–	–	–	–	–	102%	99.7%	102%	104%	108%	101%	99.5%	100%	99.4%	101%	99.5%	108%	92.7%	85.5%	91%	> 10 µM	> 10 µM	–	0	0	1.8	97.2%	94.1%	105%	99%	103%	0	> 10 µM	> 10 µM	–
NC(=O)c1ccc(I)c([N+](=O)[O-])c1 [iniparib]	–	–	–	–	–	–	–	–	–	–	104%	95.8%	96.4%	104%	98.4%	91.2%	106%	107%	94.2%	106%	> 10 µM	> 10 µM	–	–	0	0	110%	99%	103%	102%	114%	0	–	> 10 µM	–
CCOC(=O)[C@@H](N)CCC(=O)N[C@@H](CSCc1ccccc1)C(=O)N[C@@H](C(=O)OCC)c1ccccc1 [ezatiostat]	–	–	–	–	–	98.4%	93.4%	92%	91%	86.2%	96.9%	106%	96.1%	100%	95.3%	101%	98.8%	99.4%	97.1%	107%	> 10 µM	> 10 µM	–	0.4	0	0	97.2%	103%	106%	103%	91.2%	0	> 10 µM	> 10 µM	–
O=C(NCCCNc1nc(Nc2cccc(NC(=O)N3CCCC3)c2)ncc1I)c1cccs1 [BX-795]	97.8%	98.4%	97%	101%	61.7%	98.2%	98%	105%	92.6%	63.7%	104%	99.3%	100%	90.9%	31.2%	96.9%	90.4%	96.7%	101%	34.7%	2.1 µM	3.26 µM	1.8	2.9	5.3	3.5	93.4%	97.3%	102%	107%	89.2%	0	–	> 10 µM	–
CCS(=O)(=O)N(Cc1cccnc1)c1cccc(-c2ccc(C#N)cc2)c1 [CBiPES]	103%	96.7%	101%	96.4%	85.9%	100%	99.2%	98.1%	92.6%	76.4%	104%	97.2%	103%	98.1%	94.6%	98.5%	96.3%	93.7%	105%	56.7%	> 10 µM	–	0.5	1.6	0	1.9	101%	96.5%	97.1%	96.8%	112%	0	> 10 µM	> 10 µM	> 10 µM
Nc1c(Br)cc(Br)cc1CN[C@H]1CC[C@H](O)CC1 [ambroxol]	–	–	–	–	–	100%	92.8%	98.5%	89.4%	97.5%	103%	99%	103%	101%	101%	102%	98.5%	99.6%	103%	87.5%	> 10 µM	> 10 µM	–	0	0	0	105%	101%	102%	91.8%	88.7%	0.2	> 10 µM	> 10 µM	–
